Data as given in patent US9624238B2, “4H-thieno[3,2-C]chromene-based inhibitors of Notum Pectinacetylesterase and methods of their use” (Lexicon Pharmaceuticals, Inc., priority 2011, dated 2017).

How the values were obtained:
[1] = target: T1, human notum pectinacetyltransferase (Homo sapiens, UniProt Q6P988); assay: Reporter assay (CellSensor LEF/TCF-bla FreeStyle 293F cells, Wnt3a and notum conditioned media); type: cell-based; conditions: class symbols
T1 construct: made in house; unpurified conditioned medium used
T1 sequence (Q6P988 20-496): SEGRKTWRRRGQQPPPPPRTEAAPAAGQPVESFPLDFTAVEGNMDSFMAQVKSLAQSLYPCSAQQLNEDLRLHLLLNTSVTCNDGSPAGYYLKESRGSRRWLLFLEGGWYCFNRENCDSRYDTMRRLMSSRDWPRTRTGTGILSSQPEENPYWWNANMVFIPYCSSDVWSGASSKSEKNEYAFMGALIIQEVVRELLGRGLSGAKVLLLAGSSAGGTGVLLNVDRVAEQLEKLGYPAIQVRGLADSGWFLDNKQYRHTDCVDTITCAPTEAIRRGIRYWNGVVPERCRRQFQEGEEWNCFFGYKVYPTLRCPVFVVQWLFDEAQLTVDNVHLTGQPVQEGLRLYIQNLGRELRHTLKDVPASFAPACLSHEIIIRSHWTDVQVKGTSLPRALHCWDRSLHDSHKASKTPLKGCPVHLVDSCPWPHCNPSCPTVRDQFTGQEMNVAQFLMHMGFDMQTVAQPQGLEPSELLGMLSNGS
Experimental: Plasmid containing human notum pectinacetyltransferase in pcDNA3.1(+) vector was transfected into HEK (293 cells and clones were selecting by growing in presence of 400 ug/mL of G418. The clone containing highest expression of human notum pectinacetyltransferase in the conditioned media was maintained for all future activity assays. L cells overexpressing and secreting Wnt3a into the conditioned media were purchased from ATCC.
The assay protocol was as follows. […] The cell growth medium consisted of DMEM with 10% Dialyzed FBS, 5 μg/ml Blasticidin (Invitrogen, R210-01), 0.1 mM NEAA, 25 mM HEPES and 1×GPS. Cells were then trypsinized by first rinsing with PBS, followed by addition of 5 mL of trypsin and incubation of plates at room temperature for two minutes. A total of 10 mL of assay media (Opti-MEM, plus 0.5% dialyzed FBS, 0.1 mM NEAA, 1 mM sodium pyruvate, 10 mM HEPES, 1×GPS) was then added per 15 cm plate. Cells were counted and suspended at 0.75 million cells per mL. […] After incubation of cells at 37° C. for 3 hours, 10 μL of 30 mM LiCl in assay medium was added per well, followed by incubation at 37° C. for another 3 hours. […] Ten μL of the Wnt3a/notum pentinacetyltransferase mixture was then transferred from Greiner plates to each well of the 384-well plates containing the CellSensor cells.

[2] = target: T1, human notum pectinacetyltransferase; assay: Binding assay (OPTS esterase substrate, fluorimetric); type: biochemical; conditions: class symbols
Experimental: Plasmid containing human notum pectinacetyltransferase in pcDNA3.1(+) vector was transfected into HEK (293 cells and clones were selecting by growing in presence of 400 ug/mL of G418. Condition media from these cells was used for the assay.

EC50 [1] [nM]	IC50 [2] [nM]	Structure (SMILES)
< 50	< 100	COc1ccc2c(c1Cl)CCc1cc(C(=O)N3CCC(C#N)C3)sc1-2 (stereo not drawn)
< 50	< 100	N#CC1CCN(C(=O)c2cc3c(s2)-c2cccc(F)c2CC3)C1 (stereo not drawn)
< 50	< 100	O=C1CCN(C(=O)c2cc3c(s2)-c2ccc(Cl)c(Cl)c2OC3)C1
< 50	< 100	N#CC1CCN(C(=O)c2cc3c(s2)-c2ccc(Cl)c(Cl)c2OC3)C1 (stereo not drawn)
< 50	< 1000	COc1ccccc1C1CN(C(=O)c2cc3c(s2)-c2ccc(Cl)c(F)c2OC3)CC1C(=O)O (stereo not drawn)
< 50	< 1000	N#CC1CCN(C(=O)c2cc3c(s2)-c2ccc(Cl)c(F)c2OC3)C1 (stereo not drawn)
< 50	< 2000	CC1Cc2ccccc2-c2sc(C(=O)O)cc21 (stereo not drawn)
< 50	< 1000	NC(=O)c1cc2c(s1)-c1ccccc1S(=O)(=O)C2
< 50	< 50	CCC1Cc2cc(C(N)=O)sc2-c2c(F)ccc(F)c21 (stereo not drawn)
< 50	< 1000	CCC1Cc2cc(C(=O)O)sc2-c2c(F)ccc(F)c21 (stereo not drawn)
< 50	< 1000	CC1Cc2cc(C(=O)O)sc2-c2ccccc21 (stereo not drawn)
< 50	< 50	COc1ccc2c(c1Br)CCc1cc(C(=O)O)sc1-2
< 50	< 1000	NC(=O)c1cc2c(s1)-c1cccc(Cl)c1OC2
< 50	< 1000	O=C(O)c1cc2c(s1)-c1cccc(Cl)c1OC2
< 50	< 1000	NC(=O)c1cc2c(s1)-c1cccc(Cl)c1CC2
< 50	< 100	O=C(O)c1cc2c(s1)-c1cccc(Cl)c1CC2
< 50	< 50	Cc1cc(Cl)c2c(c1)-c1sc(C(N)=O)cc1CC2
< 50	< 50	NC(=O)c1cc2c(s1)-c1c(F)ccc(Cl)c1OC2
< 50	< 1000	O=C(O)c1cc2c(s1)-c1c(F)ccc(Cl)c1OC2
< 50	< 1000	N#Cc1cccc2c1CCc1cc(C(N)=O)sc1-2
< 50	< 50	NC(=O)c1cc2c(s1)-c1cccc(F)c1OC2

EC50 [1] [nM]	IC50 [2] [nM]	Structure (SMILES)
< 50	< 1000	Cc1ccc2c(c1F)OCc1cc(C(=O)O)sc1-2
< 50	< 1000	COc1cc(F)c2c(c1)-c1sc(C(=O)O)cc1CC2
< 50	< 1000	Cc1cccc2c1OCc1cc(C(N)=O)sc1-2
< 50	< 2000	Cc1cccc2c1OCc1cc(C(=O)O)sc1-2
< 50	< 50	NC(=O)c1cc2c(s1)-c1cc(F)cc(F)c1OC2
< 50	< 50	O=C(O)c1cc2c(s1)-c1cc(F)cc(F)c1OC2
< 500	< 1000	CC1(C)Oc2c(F)cc(F)cc2-c2sc(C(N)=O)cc21
< 50	< 50	CC1Cc2cc(C(N)=O)sc2-c2cc(F)cc(F)c21 (stereo not drawn)
< 50	< 50	CC1Cc2cc(C(=O)O)sc2-c2cc(F)cc(F)c21 (stereo not drawn)
< 50	< 1000	Cc1cc(C)c2c(c1)-c1sc(C(=O)O)cc1CO2
< 50	< 50	NC(=O)c1cc2c(s1)-c1c(Cl)ccc(Cl)c1OC2
< 50	< 100	O=C(O)c1cc2c(s1)-c1c(F)ccc(F)c1OC2
< 50	< 50	CC1Cc2cc(C(N)=O)sc2-c2c(F)ccc(F)c21 (stereo not drawn)
< 50	< 50	CC1Cc2cc(C(=O)O)sc2-c2c(F)ccc(F)c21 (stereo not drawn)
< 50	< 1000	CC1(C)Cc2cc(C(=O)O)sc2-c2c(F)ccc(F)c21
< 500	< 2000	CN(C)c1ccc2c(c1)CCc1cc(C(=O)O)sc1-2
< 50	< 2000	CNc1ccc2c(c1)CCc1cc(C(=O)O)sc1-2
< 50	< 1000	O=C(O)c1cc2c(s1)-c1ccc(C(F)(F)F)cc1OC2
< 50	< 1000	O=C(O)c1cc2c(s1)-c1ccc(Br)cc1CC2
< 50	< 100	CC1Cc2cc(C(N)=O)sc2-c2ccc(Cl)cc21 (stereo not drawn)
< 50	< 1000	CC1Cc2cc(C(=O)O)sc2-c2ccc(Cl)cc21 (stereo not drawn)

EC50 [1] [nM]	IC50 [2] [nM]	Structure (SMILES)
< 50	< 1000	CC1(C)Cc2cc(C(N)=O)sc2-c2ccc(Cl)cc21
< 50	< 2000	CC1(C)Cc2cc(C(=O)O)sc2-c2ccc(Cl)cc21
< 50	< 2000	O=C(O)c1cc2c(s1)-c1ccc(F)cc1OC2
< 50	< 1000	O=C(O)c1cc2c(s1)-c1ccc(F)cc1SC2
< 500	< 2000	O=C(O)c1cc2c(s1)-c1cc(F)c(F)cc1S(=O)(=O)C2
< 50	< 100	O=C(O)c1cc2c(s1)-c1cc(F)c(F)cc1SC2
< 50	< 1000	CC1Cc2cc(C(=O)O)sc2-c2cc(F)c(F)cc21 (stereo not drawn)
< 50	< 50	CC1Cc2cc(C(N)=O)sc2-c2cc(F)c(F)cc21 (stereo not drawn)
< 50	< 2000	CC1(C)Cc2cc(C(=O)O)sc2-c2cc(F)c(F)cc21
< 50	< 1000	Cc1cc2c(cc1C)-c1sc(C(=O)O)cc1CO2
< 50	< 50	NC(=O)c1cc2c(s1)-c1c(cc(F)c(F)c1F)OC2
< 50	< 2000	Cc1cc(C)c2c(c1)OCc1cc(C(N)=O)sc1-2
< 50	< 1000	NC(=O)c1cc2c(s1)-c1cc(Cl)ccc1SC2
< 50	< 1000	Cc1cc(Cl)cc2c1OCc1cc(C(N)=O)sc1-2
< 50	< 1000	Cc1cc(Cl)cc2c1OCc1cc(C(=O)O)sc1-2
< 50	< 1000	O=C(O)c1cc2c(s1)-c1cc(Cl)c(C(F)(F)F)cc1OC2
< 50	< 1000	Cc1cc2c(cc1Cl)-c1sc(C(=O)O)cc1CO2
< 50	< 100	CC1Oc2ccc(F)cc2-c2sc(C(N)=O)cc21 (stereo not drawn)
< 50	< 50	NC(=O)c1cc2c(s1)-c1cc(F)ccc1OC2
< 50	< 1000	O=C(O)c1cc2c(s1)-c1cc(F)ccc1S(=O)(=O)C2
< 50	< 50	CC1Cc2cc(C(N)=O)sc2-c2cc(F)ccc21 (stereo not drawn)

EC50 [1] [nM]	IC50 [2] [nM]	Structure (SMILES)
< 50	< 50	CC1Cc2cc(C(=O)O)sc2-c2cc(F)ccc21 (stereo not drawn)
< 50	< 100	Cc1cc(F)cc2c1OCc1cc(C(=O)O)sc1-2
< 50	< 100	Cc1cc2c(cc1F)-c1sc(C(=O)O)cc1CO2
< 50	< 2000	Cc1ccc2c(c1)-c1sc(C(N)=O)cc1CS2
< 50	< 50	NC(=O)c1cc2c(s1)-c1c(F)cccc1OC2
< 1000	< 1000	O=C(NCCN1CCCCC1)c1cc2c(s1)-c1ccccc1CC2
< 50	< 50	O=C(NO)c1cc2c(s1)-c1ccccc1CC2
< 500	< 100	CCCNC(=O)c1cc2c(s1)-c1ccccc1CC2
< 50	< 50	COc1ccc2c(c1Cl)CCc1cc(C(=O)N3CCC(F)C3)sc1-2 (stereo not drawn)
< 50	< 50	COc1ccc2c(c1Cl)CCc1cc(C(=O)N3CCC(OC)C3)sc1-2 (stereo not drawn)
< 50	< 50	COC1CCN(C(=O)c2cc3c(s2)-c2cccc(F)c2CC3)C1 (stereo not drawn)
< 50	< 1000	O=C(c1cc2c(s1)-c1cccc(F)c1CC2)N1CCC(F)C1 (stereo not drawn)
< 50	< 1000	O=C(c1cc2c(s1)-c1ccc(Cl)c(Cl)c1OC2)N1CCC(F)C1 (stereo not drawn)
< 50	< 100	O=C(c1cc2c(s1)-c1ccc(F)c(F)c1CC2)N1CCC(F)C1 (stereo not drawn)
< 50	< 1000	O=C(c1cc2c(s1)-c1cc(Cl)cc(F)c1OC2)N1CCC(F)C1 (stereo not drawn)
< 50	< 2000	CCOC(=O)c1cc2c(s1)-c1ccccc1CC2
< 50	< 100	COC(=O)C1CN(C(=O)c2cc3c(s2)-c2ccc(Cl)c(F)c2OC3)CC1c1ccccc1F (stereo not drawn)
< 50	< 2000	CC(C)(C)OC(=O)NCCNC(=O)c1cc2c(s1)-c1ccccc1CC2
